Where two headings read alike, the source gives them in different places.
Legend:
expanded OPCs = assay: cells; details: for viability at 0.1 µM / viability at 1 µM / viability at 10 µM: Rattus norvegicus, 72 h; for 0.1 µM (% DMSO) / 1 µM (% DMSO) / 10 µM (% DMSO): alamarBlue viability of expanded OPCs; for 0.1 µM (% DMSO): compound at 0.1 µM; for 1 µM (% DMSO): compound at 1 µM; for 10 µM (% DMSO): compound at 10 µM
In short: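 Expanded OPCs seeded at 10,000 cells/well in differentiation media, then exposed to NCC library compounds at 10, 1 and 0.1 µM (quadruplicate, 0.1% DMSO) for three days. Viability read as alamarBlue fluorescence (560/590 nm) after 4 h at 37 °C; tunicamycin 5 ng/ml served as toxicity control.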

[1] = test system: acutely dissociated and purified rat OPCs; assay: Acute OL differentiation assay (MBP expression/cell, immunofluorescent image quantification); type: cell-based; details: sheet "All OLga data"
In short: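 Oligodendrocyte precursor cells were enriched from P6-P7 Sprague–Dawley rat brains by immunopanning (RAN-2 and GalC depletion, O4 selection), plated at 5000 cells/well in serum-free, mitogen-free differentiation media on PDL/laminin 96-well view plates, centrifuged at 200×g, and pre-incubated 1–2 h before test compounds were added in quadruplicate. On DIV4, cells were fixed, stained for MBP and DAPI, imaged automatically, and MBP expression per cell was quantified.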

[2] = read-out: 0.1 µM (% DMSO), alamarBlue viability of expanded OPCs, compound at 0.1 µM, sheet All Tox data
[3] = read-out: 1 µM (% DMSO), alamarBlue viability of expanded OPCs, compound at 1 µM, sheet All Tox data
[4] = read-out: 10 µM (% DMSO), alamarBlue viability of expanded OPCs, compound at 10 µM, sheet All Tox data
[5] = Rattus norvegicus, 2 uM test compound, relative to quetiapine, read-out: OL differentiation, 2 uM (% Quet)
[6] = Rattus norvegicus, test compound at 2 uM, MBP expression relative to quetiapine, NCC library screen, read-out: 2 uM (% Quet)
[7] = Rattus norvegicus, test compound at 10 uM, MBP expression relative to quetiapine, NCC library screen, read-out: 10 uM (% Quet)
[8] = Rattus norvegicus, 10 uM test compound, relative to quetiapine, read-out: OL differentiation, 10 uM (% Quet)
[9] = Rattus norvegicus, test compound at 0.4 uM, MBP expression relative to quetiapine, NCC library screen, read-out: 0.4 uM (% Quet)
[10] = read-out: 0.1 µM (% DMSO), alamarBlue viability, NCC library compound at 0.1 µM, sheet "All Tox data"
[11] = read-out: 1 µM (% DMSO), alamarBlue viability, NCC library compound at 1 µM, sheet "All Tox data"
[12] = read-out: 10 µM (% DMSO), alamarBlue viability, NCC library compound at 10 µM, sheet "All Tox data"
[13] = Rattus norvegicus, test compound at 0.4 uM, NCC library screen, relative to quetiapine, read-out: 0.4 uM (% Quet)
[14] = Rattus norvegicus, test compound at 2 uM, NCC library screen, relative to quetiapine, read-out: 2 uM (% Quet)
[15] = Rattus norvegicus, test compound at 10 uM, NCC library screen, relative to quetiapine, read-out: 10 uM (% Quet)

Row | Structure (SMILES) | viability at 0.1 µM (expanded OPCs; [2]) [%] | viability at 1 µM (expanded OPCs; [3]) [%] | viability at 10 µM (expanded OPCs; [4]) [%] | activation at 2 µM [1, 5] [%] | activation at 10 µM [1, 8] [%] | viability at 0.1 µM (expanded OPCs; [10]) [%] | viability at 1 µM (expanded OPCs; [11]) [%] | viability at 10 µM (expanded OPCs; [12]) [%] | activation at 2 µM [1, 14] [%] | further results
1 | COCCCC/C(=N\OCCN)c1ccc(C(F)(F)F)cc1 [Fluvoxamine] | 79.1 | 67.7 | 40 | 23.1 |  |  |  |  |  | activation at 0.4 µM ([1]; Rattus norvegicus, 0.4 uM test compound, relative to quetiapine, read-out: OL differentiation, 0.4 uM (% Quet)): 3.3%
2 | CC1(C)O[C@@H]2C[C@H]3[C@@H]4CCC5=CC(=O)C=C[C@]5(C)[C@@]4(F)[C@@H](O)C[C@]3(C)[C@]2(C(=O)CO)O1 [Azmacort] |  |  |  |  |  |  |  |  |  | 0.1 µM (% DMSO) (expanded OPCs; relative to DMSO control): 95.7 % DMSO; 1 µM (% DMSO) (expanded OPCs; relative to DMSO control): 95.0 % DMSO; 10 µM (% DMSO) (expanded OPCs; relative to DMSO control): 69.5 % DMSO; activation at 2 µM [1, 6]: 24.2%; activation at 10 µM [1, 7]: -114%
3 | Nc1ccc(O)c(C(=O)O)c1 [Mesalamine] | 86.2 | 92.2 | 87.2 | -9.1 | -0.34 |  |  |  |  | 
4 | COC(=O)[C@H](c1ccccc1Cl)N1CCc2sccc2C1 [Clopidogrel] |  |  |  |  |  |  |  |  |  | 0.1 µM (% DMSO) (expanded OPCs; relative to DMSO control): 103.8 % DMSO; 1 µM (% DMSO) (expanded OPCs; relative to DMSO control): 94.8 % DMSO; 10 µM (% DMSO) (expanded OPCs; relative to DMSO control): 75.7 % DMSO; activation at 0.4 µM [1, 9]: -4%; activation at 2 µM [1, 6]: -15%
5 | O=C(O[C@@H]1Cc2c(O)cc(O)cc2O[C@@H]1c1cc(O)c(O)c(O)c1)c1cc(O)c(O)c(O)c1 [Epigallocatechin gallate] |  |  |  |  |  |  |  |  |  | 0.1 µM (% DMSO) (expanded OPCs; sheet All Tox data): 81.9 % DMSO; 1 µM (% DMSO) (expanded OPCs; sheet All Tox data): 78.8 % DMSO; 10 µM (% DMSO) (expanded OPCs; sheet All Tox data): 48.5 % DMSO; OL differentiation, 0.4 uM (% Quet) ([1]; 0.4 uM test compound, relative to quetiapine): -15.9 % Quet; OL differentiation, 2 uM (% Quet) ([1]; 2 uM test compound, relative to quetiapine): 21.7 % Quet
6 | CC(=O)O[C@H]1C[C@@H]2CC[C@@H]3[C@H](CC[C@@]4(C)[C@H]3C[C@H]([N+]3(C)CCCCC3)[C@@H]4OC(C)=O)[C@@]2(C)C[C@@H]1[N+]1(C)CCCCC1 [Pancuronium] | 83.3 | 83.2 | 88 | 14.7 | 8.2 |  |  |  |  | 
7 | COc1ccc2[nH]cc(C3=CCNCC3)c2c1 [RU-24969] |  |  |  |  |  | 83.2 | 62.4 | 36.7 | -15.5 | activation at 0.4 µM [1, 13]: -5.3%
8 | C#C[C@]1(OC(C)=O)CC[C@H]2[C@@H]3CCC4=CC(=O)CC[C@@H]4[C@H]3CC[C@@]21C [Norethisterone acetate] |  |  |  |  |  | 103 | 93.1 | 101 | -15 | activation at 10 µM [1, 15]: -14.3%
9 | COc1ccc2c3c1O[C@H]1C[C@@H](O)C=C[C@@]31CCN(C)C2 [Galantamine] | 86.2 | 81.7 | 81.5 | 14.9 | 16.4 |  |  |  |  | 
10 | NC1=NC(=O)C(c2ccccc2)O1 (stereo not drawn) [Pemoline] | 96 | 104 | 101 | -15.2 | -10.6 |  |  |  |  | 
11 | CC(C)C[C@H](NC(=O)[C@@H](O)[C@H](N)Cc1ccccc1)C(=O)O [Ubenimex] |  |  |  |  |  | 112 | 112 | 123 | -3.1 | activation at 10 µM [1, 15]: 9.5%
12 | CC(=O)Oc1ccccc1C(=O)Nc1ncc([N+](=O)[O-])s1 [Nitazoxanide] |  |  |  | -75.9 |  | 91 | 96.5 | 55.7 |  | 
13 | CC=CC(=O)N(CC)c1ccccc1C (mixture of isomers) [Crotamiton] | 92.3 | 106 | 97.8 | 1.7 | 1.9 |  |  |  |  | 
14 | Cc1ccc(-c2nc3ccc(C)cn3c2CC(=O)N(C)C)cc1 [Zolpidem] | 86.9 | 90.8 | 93.5 | -14 | -2.7 |  |  |  |  | 
15 | CCCN1C[C@H](CSC)C[C@@H]2c3cccc4[nH]cc(c34)C[C@H]21 [Pergolide] |  |  |  |  |  | 100 | 83.6 | 41 | -15.7 | activation at 0.4 µM [1, 13]: -8.9%
16 | CNC(=O)Oc1ccc2c(c1)[C@]1(C)CCN(C)[C@@H]1N2C [Physostigmine] | 105 | 96.7 | 78 | -4.5 | 0.12 |  |  |  |  | 
17 | COc1ccc2cc(CCC(C)=O)ccc2c1 [Nabumetone] |  |  |  |  |  | 92 | 90.9 | 94.8 | 5.8 | activation at 10 µM [1, 15]: 14.1%
18 | Nc1nc(Cl)nc2c1ncn2[C@H]1C[C@H](O)[C@@H](CO)O1 [Cladribine] |  |  |  |  |  | 41.2 | 22.4 | 10.4 |  | activation at 0.08 µM ([1]; Rattus norvegicus, test compound at 0.08 uM, NCC library screen, relative to quetiapine, read-out: 0.08 uM (% Quet)): -6.7%; activation at 0.4 µM [1, 13]: -22.9%
19 | O=c1[nH]c(=O)n([C@H]2C[C@H](O)[C@@H](CO)O2)cc1F [Floxuridine] |  |  |  |  |  |  |  |  |  | 0.1 µM (% DMSO) (expanded OPCs; relative to DMSO control): 65.0 % DMSO; 1 µM (% DMSO) (expanded OPCs; relative to DMSO control): 64.9 % DMSO; 10 µM (% DMSO) (expanded OPCs; relative to DMSO control): 67.9 % DMSO; activation at 0.4 µM [1, 9]: -13.5%; activation at 2 µM [1, 6]: -23.6%
20 | CC1=C(/C=C/C(C)=C/C=C/C(C)=C/C(=O)O)C(C)(C)CCC1 [Retinoic Acid] |  |  |  |  |  |  |  |  | 128 | 0.1 µM (% DMSO) (expanded OPCs; relative to DMSO control): 144.5 % DMSO; 1 µM (% DMSO) (expanded OPCs; relative to DMSO control): 188.5 % DMSO; 10 µM (% DMSO) (expanded OPCs; relative to DMSO control): 58.3 % DMSO; activation at 0.4 µM [1, 13]: -23%
21 | O=S(=O)(O)CCS [Mesna] |  |  |  |  |  |  |  |  |  | 0.1 µM (% DMSO) (expanded OPCs; relative to DMSO control): 92.5 % DMSO; 1 µM (% DMSO) (expanded OPCs; relative to DMSO control): 91.3 % DMSO; 10 µM (% DMSO) (expanded OPCs; relative to DMSO control): 100.9 % DMSO; activation at 2 µM [1, 6]: -46%; activation at 10 µM [1, 7]: -38.6%
22 | C#C[C@]1(O)CC[C@H]2[C@@H]3CCC4=CC(=O)CC[C@@H]4[C@H]3CC[C@@]21CC [Levonorgestrel] | 97.5 | 88 | 91.5 | 7.5 | -8.6 |  |  |  |  | 
23 | CCCC(CCC)C(=O)O [Valproic Acid] |  |  |  |  |  | 97.5 | 93.1 | 104 | -5.2 | activation at 10 µM [1, 15]: -29.7%

Reference: PMC5011342, “A high throughput drug screening assay to identify compounds that promote oligodendrocyte differentiation using acutely dissociated and purified oligodendrocyte precursor cells” (BMC Research Notes, 2016)
